Experimental data as given in patent publication US4758560A, “Phenyl-(3-hexamethyleneiminopropyl)-ketone” (priority 1985, dated 1988).
Read-outs that look alike come from different tables or passages of the source.

Legend:
femoral artery [1] = test: Comparative assays: femoral vasodilating action (MVD) in nembutal-anesthetized dogs, I.D. route; format: in vivo; set-up: key to MVD (minimum dose inducing a femoral vasodilating action): (g): no vasodilating action per I.D. route; settings: for minimal effective dose: Canis lupus familiaris, intraduodenal, read-out: MVD (minimum dose inducing in nembutal-anesthetized dogs a femoral vasodilating action); for therapeutical index (MVD/LD50 ratio): MVD I.D. dogs / LD50 I.V. mice
Source text: (e) minimum dose inducing in nembutalanesthetized dogs a femoral
vasodilating action (tested products being administered per I.D. route).

in vivo = settings: mouse, iv, LD-50 I.V. mice
femoral artery [2] = test: Comparison of salts: femoral artery flow in nembutal-anesthetized dogs, I.A. route; format: in vivo; settings: Ex 1 at pH 6, Ex 2 and Ex 3 at pH 4, dose 0: 64, 64, 79, average of 5 assays
Experimental: Three dogs anesthetized with nembutal and having an average weight of 12.9 kg are used as control animals vis-a-vis themselves, and are administered per I.A. route in the femoral artery with phenyl-(3-hexamethyleneiminopropyl)-ketone hydrochloride, fumarate and citrate (Ex 1, Code No.: CRL 41 339; Ex 2, Code No.: CRL 41 339A; and respectively Ex 3, code No.: CRL 41 339B), at equimolar doses.

adult human beings = test: Clinical assays in adult human beings; format: in vivo; settings: arteritis manifestations and ulcers of arterial or venous origin in lower limbs
Source text: In clinical trials, good results were obtained on adult human beings after administration of CRL 41 339 as vasodilating agent, in particular in the treatment of (i) arteritis manifestations in lower limbs, and (ii) ulcers of arterial or venous origin in lower limbs.

noradrenaline = test: Noradrenaline-induced hypertension after CRL 41 339 in anesthetized dogs; format: in vivo; settings: for systolic blood pressure with noradrenaline: 2 μg/kg noradrenaline after 19.1 mg/kg I.D. accumulated; for systolic blood pressure before noradrenaline: after 19.1 mg/kg I.D. accumulated
Experimental: (§1) The study of the cardiovascular properties has been performed on nembutal-anesthetized dogs, CRL 41 339 being administered intra-duodenallyin solution in physiological saline (bidistilled water containing 9 g/l of NaCl) at pH 7.5 (the maximum concentration of CRL 41 339 used being of 32.4 mg/ml).
(§2) Three dogs (average weight: 14.3 kg), anesthetized with nembutal, receive CRL 41 339 by intraduodenal administration at successive doses of 0.1 mg/kg, 0.5 mg/kg, 1 mg/kg, 2.5 mg/kg, 5 mg/kg and 10 mg/kg, then two of these dogs receive a supplemental dose of CRL 41 339 (10 mg/kg) by intravenous administration.
(§3) The arterial blood pressure, the heart rate, the blood flow through the femoral artery, the blood flow through the vertebral artery and the rectal and cutaneous temperatures are measured.
It is also observed that the noradrenaline-induced hypertension is reduced by CRL 41 339 (at an accumulated dose of 19.1 mg/kg I.D.):
with 2 μg/kg of noradrenaline the systolic blood pressure increases from 160 mm Hg (i.e. about 2.1×10^4 Pa) to 253 mm Hg (i.e. about 3.3×10^4 Pa) after administration of CRL 41 339 at an accumulated dose of 19.1 mg/kg I.D., while in the control animals, (anesthetized dogs receiving only noradrenaline) the blood systolic pressure increases from 181 mm Hg (i.e. about 2.4×10^4 Pa) to 301 mm Hg (i.e. about 4×10^4 Pa).

[3] = tested on: rabbit ear microcirculation; test: Action on rabbit ear microcirculation; format: in vivo; settings: gastric route, awakened Half Top rabbits
Experimental: […] in an aqueous solution at pH 6.5 (prepared extemporaneously) is administered by gastric route to Half Top rabbit batches (3 males, average weight: […]; and 3 females, average weight 3.3 kg) under a volume of 2 ml/kg. The very same animals used as control animals against themselves receive distilled water per gastric route, under the very same volume. The following parameters are measured: the terminal arteriole diameter, the terminal veinule diameter, the arteriolar pulsatility, the ear cutaneous temperature, the heart rate and the rectal temperature.

Solubility in water = format: physicochemical; settings: white powder, very soluble in water
[4] = tested on: perfused hind quarters of rats; test: Action on perfused hind quarters of rats; format: in vivo
femoral artery [5] = test: Action on isolated dog vessels: femoral artery; settings: n=5
Experimental: (§4) Annuli of femoral arteriae and external saphenous veins of nembutal-anesthetized dogs are cut off and placed into aerated (O2 : 96%; CO2 : 4%, by volume) Krebs-Henseleit, kept at 37° C. and subjected to a 0.5 g stretching. These vessels are constricted either with noradrenaline 10^-5 M in the presence of propanolol 10^-6 M, or with KCl 50 mM in the presence of phentolamine 3×10^-6 M. CRL 41 339 is tested at accumulated doses.

isoprenaline = test: Effects of isoprenaline after CRL 41 339 in anesthetized dogs; format: in vivo
Experimental: as §1, §2, §3
with 1 μg/kg of isoprenaline, the diastolic blood pressure changes from 117 mm Hg (i.e. about 1.5×10^4 Pa) to 37 mm Hg (i.e. about 4.9×10^3 Pa) after CRL 41 339, instead of changing from 144 mm Hg (i.e. about 1.9×10^4 Pa) to 36 mm Hg (i.e. about 4.8×10^3 Pa) in the control animals (i.e. anesthetized dogs receiving only isoprenaline), and the heart rate changes from 175 beats/minute to 238 beats/minute after CRL 41 339, while in the control animals said heart rate increases from 188 beats/minute to 253 beats/minute.

mice [6] = tested on: mice
[7] = tested on: nembutal-anesthetized dogs; test: Cardiovascular study in nembutal-anesthetized dogs, intraduodenal administration (then I.V.); format: in vivo; settings: for minimal effective dose: Canis lupus familiaris, intraduodenal
Experimental: as §1, §2, §3

external saphenous vein = test: Action on isolated dog vessels: external saphenous vein; settings: n=4
Experimental: as §4

mice [8] = test: Toxicity in mice, intraperitoneal route; format: in vivo
[9] = nembutal-anesthetized, noradrenaline-constricted
[10] = KCl 50 mM with phentolamine 3×10^-6 M
[11] = noradrenaline 10^-5 M with propanolol 10^-6 M
[12] = after accumulated dose of 19.1 mg/kg I.D.
[13] = 10 mg/kg I.V., supplemental to I.D. doses

COc1cc(OC)c(C(=O)CCCN2CCCCC2)c(OC)c1 [A-3]
MVD (minimum dose inducing a femoral vasodilating action) (femoral artery [1]; dogs, I.D. route): (g)

COc1cc(OC)c(C(=O)CCCN2CCCC2)c(OC)c1.Cl [A-1, (2,4,6-trimethoxyphenyl)-(3-pyrrolidinopropyl)-ketone hydrochloride]
minimal effective dose (femoral artery [1]; dogs, I.D. route): 6 mg/kg | therapeutical index (MVD/LD50 ratio) (femoral artery [1]): 0.100 | LD50 (in vivo): 60 mg/kg

O=C(CCCN1CCCCCC1)c1ccccc1.O=C(O)CC(O)(CC(=O)O)C(=O)O [Ex 3, phenyl(3-hexamethyleneiminopropyl)-ketone citrate]
Femoral flow (femoral artery [2]; dose 10^-5 M): 197 mL/min | Femoral flow (femoral artery [2]; dose 10^-6 M): 127 mL/min | Femoral flow (femoral artery [2]; dose 10^-7 M): 90 mL/min

O=C(CCCN1CCCCCC1)c1ccccc1.O=C(O)/C=C/C(=O)O [Ex 2, phenyl(3-hexamethyleneiminopropyl)-ketone fumarate]
Femoral flow (femoral artery [2]; dose 10^-5 M): 168 mL/min | Femoral flow (femoral artery [2]; dose 10^-6 M): 117 mL/min | Femoral flow (femoral artery [2]; dose 10^-7 M): 76 mL/min

Cl.O=C(CCCN1CCCCCC1)c1ccccc1 [Ex 1, phenyl-(3-hexamethyleneiminopropyl)-ketone hydrochloride]
clinical trials, as vasodilating agent (adult human beings): good results | systolic blood pressure with noradrenaline (noradrenaline; controls 301): 253 mm Hg | systolic blood pressure with noradrenaline (noradrenaline; controls about 4×10^4 Pa): about 3.3×10^4 Pa | noradrenaline-induced hypertension (noradrenaline; accumulated dose of 19.1 mg/kg I.D.): reduced | systolic blood pressure before noradrenaline (noradrenaline; controls 181): 160 mm Hg | systolic blood pressure before noradrenaline (noradrenaline; controls about 2.4×10^4 Pa): about 2.1×10^4 Pa | Femoral flow (femoral artery [2]; dose 10^-5 M): 166 mL/min | Femoral flow (femoral artery [2]; dose 10^-6 M): 117 mL/min | Femoral flow (femoral artery [2]; dose 10^-7 M): 83 mL/min | vasodilating activity compared with reference compounds (femoral artery [1]; I.D. route, vs LL 1656 and CRL 41 080): more active as a vasodilating substance per introduodenal route | therapeutical index (MVD/LD50 ratio) (femoral artery [1]): 0.032 | superiority as regards peripheral vasodilating activity (femoral artery [1]; vs A-1, A-2, A-3): superiority | LD50 (in vivo): 128 mg/kg | arteriolar pulsatility [3]: stronghly increases | arteriolar pulsatility/heart rate ratio [3]: stronghly increases | duration of terminal arteriole dilation [3]: 0.5 h | ear cutaneous temperature [3]: important and lasting increase | heart rate [3]: without modifying the heart rate | terminal arteriole diameter [3]: moderately dilates | veinular diameter [3]: no action | mutagenic activity (Salmonella typhimurium): devoid of mutagenic activity | solubility (Solubility in water): 100 mg/mL | anti-noradrenaline activity ([4]; believed to be involved in the vasodilating activity): important anti-noradrenaline activity | duration of vasodilating effect [4, 9]: increases with the dose | vasodilating effect on hind quarters of rats [4, 9]: important vasodilating effect | IC50 (femoral artery [5]; Canis lupus familiaris, noradrenaline 10^-5 M with propanolol 10^-6 M, read-out: CI-50 (molar concentration which reduces of 50% the contraction), artery): 5.9 µM | action on femoral artery constriction induced by KCl (femoral artery [5]; [10]): no action | action on artery constricted by noradrenaline (femoral artery [5]; [11]): slakening | diastolic blood pressure with isoprenaline (isoprenaline; 1 μg/kg isoprenaline after CRL 41 339 (19.1 mg/kg I.D. accumulated), controls 36): 37 mm Hg | heart rate with isoprenaline (isoprenaline; 1 μg/kg isoprenaline after CRL 41 339 (19.1 mg/kg I.D. accumulated), controls 253): 238 beats/minute | diastolic blood pressure with isoprenaline (isoprenaline; 1 μg/kg isoprenaline after CRL 41 339 (19.1 mg/kg I.D. accumulated), controls about 4.8×10^3 Pa): about 4.9×10^3 Pa | diastolic blood pressure before isoprenaline (isoprenaline; after CRL 41 339 (19.1 mg/kg I.D. accumulated), controls 144): 117 mm Hg | heart rate before isoprenaline (isoprenaline; after CRL 41 339 (19.1 mg/kg I.D. accumulated), controls 188): 175 beats/minute | diastolic blood pressure before isoprenaline (isoprenaline; after CRL 41 339 (19.1 mg/kg I.D. accumulated), controls about 1.9×10^4 Pa): about 1.5×10^4 Pa | effects of isoprenaline as regards the diastolic blood pressure (isoprenaline; [12]): not modified | effects of isoprenaline as regards the heart rate (isoprenaline; [12]): slightly reduced | superiority as regards toxicity (mice [6]; mouse, in vivo): superiority | toxicity compared with reference compounds (mice [6]; vs LL 1656 and CRL 41 080): less toxic | blood pressure effect of supplemental I.V. dose [7, 13]: hypotension | heart rate effect of supplemental I.V. dose [7, 13]: bradycardia | minimal effective dose ([7]; I.D., accumulated dose, read-out: accumulated dose as from which femoral artery flow is highly increased): 4.1 mg/kg | minimal effective dose ([7]; I.D., single successive dose, read-out: dose as from which femoral artery flow is highly increased): 2.5 mg/kg | blood arterial pressure ([7]; I.D. route): does not modify | heart beat ([7]; I.D. route): does not modify | respiration rate ([7]; I.D. route): reduces the respiration rate | femoral artery flow ([7]; I.D., as from the dose of 2.5 mg/kg (accumulated 4.1 mg/kg)): highly increases | IC50 (external saphenous vein; Canis lupus familiaris, noradrenaline 10^-5 M with propanolol 10^-6 M, read-out: CI-50 (molar concentration which reduces of 50% the contraction), vein): 130 µM | action on external saphenous vein constriction induced by KCl (external saphenous vein; [10]): no action | action on vein constricted by noradrenaline (external saphenous vein; [11]): slakening | LD-30 (lethal dose for 30% of the treated animals) (mice [8]): about 128 mg/kg | LD-100 (minimum lethal dose for all the treated animals) (mice [8]): ≤ 256 mg/kg | LD-O (maximum non-lethal dose) (mice [8]): higher than 64 mg/kg

COc1cc(OC)c(C(=O)CCCN2CCCCCC2)c(OC)c1.Cl [A-2, (2,4,6-trimethoxyphenyl)-(3-hexamethyleneiminopropyl)-ketone hydrochloride]
minimal effective dose (femoral artery [1]; dogs, I.D. route): 5 mg/kg | therapeutical index (MVD/LD50 ratio) (femoral artery [1]): 0.053 | LD50 (in vivo): 96 mg/kg
